Where two headings read alike, the source gives them in different places.
Key:
β-Glc (from almonds) [1] = test: β-Glc microplate assay (hydrolysis of p-nitrophenyl-β-D-glucopyranoside); type: biochemical; settings: for IC50: microplate assay, β-PNPG substrate, pH 7, 37 °C, read-out: IC50 (β-Glc inhibition)
Experimental: The final volume in well was 270 μL. The enzymatic reaction was initiated by addition of β-PNPG (1.63 mM end concentration in well). […] For IC50 determination, ten serial dilutions of the compounds were prepared in DMSO, following equally spaced points in […] logarithm scale, starting at 16.2 mM and finishing at 1.7 μM. IC50 was calculated using Prism V5.01 (GraphPad Software Inc., La Jolla, CA, USA) requesting the software a non-linear regression curve fit for a log[Inhibitor] vs. normalized answer model with variable slope.

β-Glc (from almonds) [2] = settings: cited from earlier work
β-Glc [3] = settings: cited from earlier work
β-Glc [4] = test: Jump dilution assay; type: biochemical, almonds
Experimental: After 30 minutes of incubation, the mixture was diluted 100-fold and mixed with the substrate and α-CD to start the reaction. The progress curve of this sample was measured and compared to a sample of enzyme incubated and diluted in the absence of inhibitor. Each incubation and dilution were prepared and measured in triplicate. The percentage of activity recovery was obtained using Prism V5.01 (GraphPad Software Inc.).

β-Glc [5] = test: Kinetic experiments (Lineweaver–Burk, Ki); type: biochemical, almonds
Experimental: Microplate assay was carried on varying substrate concentration between 0.022 and 7.2 mM; as well as the inhibitor concentration was varied between 0.239 and 0.0061 mM. Initial velocities vs. [S] curves were obtained with Michaelis–Menten equation adjustment. After that, Lineweaver–Burk linearization plot and the secondary linearization of Slopes vs. [I] reveled type of inhibition and Ki value respectively. All the data acquired was treated through Prism V5.01 (GraphPad Software Inc.).

xanthine oxidase (XO) = xanthine oxidase (XO) (Bos taurus, UniProt P80457); test: XO microplate assay (uric acid formation); type: biochemical, bovine; settings: tested at 3 μM
Chain of xanthine oxidase (XO) (P80457 whole entry): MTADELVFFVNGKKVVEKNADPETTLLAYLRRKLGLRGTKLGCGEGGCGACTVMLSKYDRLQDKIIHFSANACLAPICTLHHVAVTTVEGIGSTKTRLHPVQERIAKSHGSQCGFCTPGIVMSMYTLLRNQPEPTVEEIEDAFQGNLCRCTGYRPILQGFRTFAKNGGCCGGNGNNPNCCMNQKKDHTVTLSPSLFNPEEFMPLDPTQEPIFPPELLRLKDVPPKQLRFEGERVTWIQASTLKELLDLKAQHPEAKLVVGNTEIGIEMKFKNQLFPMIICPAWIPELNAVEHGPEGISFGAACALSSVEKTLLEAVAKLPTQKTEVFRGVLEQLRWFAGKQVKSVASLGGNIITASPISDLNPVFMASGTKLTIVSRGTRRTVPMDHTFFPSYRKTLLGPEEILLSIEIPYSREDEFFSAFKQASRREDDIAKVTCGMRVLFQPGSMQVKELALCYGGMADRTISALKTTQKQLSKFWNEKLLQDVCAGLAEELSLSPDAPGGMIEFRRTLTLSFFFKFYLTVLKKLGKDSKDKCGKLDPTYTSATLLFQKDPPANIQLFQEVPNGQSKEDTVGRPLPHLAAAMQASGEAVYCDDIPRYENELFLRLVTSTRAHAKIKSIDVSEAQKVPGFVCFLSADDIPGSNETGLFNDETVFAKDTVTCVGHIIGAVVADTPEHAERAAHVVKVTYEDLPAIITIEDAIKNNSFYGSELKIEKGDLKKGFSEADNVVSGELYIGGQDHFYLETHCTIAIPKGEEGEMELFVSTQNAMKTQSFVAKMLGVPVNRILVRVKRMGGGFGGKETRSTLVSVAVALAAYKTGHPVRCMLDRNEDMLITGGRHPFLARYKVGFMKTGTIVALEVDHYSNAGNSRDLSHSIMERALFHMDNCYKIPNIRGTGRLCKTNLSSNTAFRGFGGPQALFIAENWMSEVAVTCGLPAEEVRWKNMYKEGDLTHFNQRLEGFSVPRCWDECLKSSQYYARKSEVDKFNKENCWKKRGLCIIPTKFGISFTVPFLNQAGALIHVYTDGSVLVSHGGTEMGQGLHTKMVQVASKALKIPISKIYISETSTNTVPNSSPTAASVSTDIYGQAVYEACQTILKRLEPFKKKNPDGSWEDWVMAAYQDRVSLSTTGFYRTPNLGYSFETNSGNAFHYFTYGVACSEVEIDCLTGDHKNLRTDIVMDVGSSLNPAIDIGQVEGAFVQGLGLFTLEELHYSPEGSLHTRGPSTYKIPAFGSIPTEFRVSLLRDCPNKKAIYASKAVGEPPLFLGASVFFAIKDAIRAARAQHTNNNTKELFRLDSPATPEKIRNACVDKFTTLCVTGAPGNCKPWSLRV
Experimental: Following the method previously reported by Chu,[45] the formation of uric acid was continuously measured in 96-well microplate. Each well was filled in triplicates with: of 10 μL test compound in DMSO (0.11 μM end concentration in well) and XO (bovine) in 0.2 M buffer phosphate, pH 7.5 (2.81 μU mL^−1, end concentration in well). […] The final volume in well was 270 μL. The enzymatic reaction was initiated by addition of the xanthine substrate (0.04 mM, end concentration in well). The plate was shaken for 2 s and the increase in absorbance at 295 nm was monitored at 30 °C for 20 min.

[6] = target: acetyl cholinesterase (AChE) (Electrophorus electricus, UniProt O42275); type: biochemical, electric eel; settings: tested at 1.5 μM
Chain of acetyl cholinesterase (AChE) (O42275 24-633): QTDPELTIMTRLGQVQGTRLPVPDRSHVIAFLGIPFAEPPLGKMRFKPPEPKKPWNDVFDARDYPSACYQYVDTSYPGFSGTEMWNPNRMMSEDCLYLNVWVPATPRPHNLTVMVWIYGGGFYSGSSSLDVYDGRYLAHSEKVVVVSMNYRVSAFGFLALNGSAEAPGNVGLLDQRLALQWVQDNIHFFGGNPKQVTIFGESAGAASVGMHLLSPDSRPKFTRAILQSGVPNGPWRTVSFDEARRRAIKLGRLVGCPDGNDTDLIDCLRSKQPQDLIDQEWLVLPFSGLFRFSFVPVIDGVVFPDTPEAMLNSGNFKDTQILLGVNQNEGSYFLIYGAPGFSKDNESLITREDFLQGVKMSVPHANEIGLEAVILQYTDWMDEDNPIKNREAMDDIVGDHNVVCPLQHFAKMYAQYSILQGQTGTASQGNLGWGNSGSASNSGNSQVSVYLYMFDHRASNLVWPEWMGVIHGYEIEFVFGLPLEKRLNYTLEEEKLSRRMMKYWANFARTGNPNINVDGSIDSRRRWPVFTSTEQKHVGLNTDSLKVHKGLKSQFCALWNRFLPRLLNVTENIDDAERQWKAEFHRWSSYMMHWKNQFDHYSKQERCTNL
Experimental: AChE activity measurement was carried on based on Ellman's method.[46] […] The plate was shaken for 2 s and the increase in absorbance at 405 nm was monitored at 37 °C for 15 min.

β-galactosidase (β-Gal) [7] = target: T1, β-galactosidase (β-Gal) (Kluyveromyces lactis, UniProt P00723); test: β-Gal microplate assay; type: biochemical; settings: up to 3.500 mM
T1 sequence (P00723 whole entry): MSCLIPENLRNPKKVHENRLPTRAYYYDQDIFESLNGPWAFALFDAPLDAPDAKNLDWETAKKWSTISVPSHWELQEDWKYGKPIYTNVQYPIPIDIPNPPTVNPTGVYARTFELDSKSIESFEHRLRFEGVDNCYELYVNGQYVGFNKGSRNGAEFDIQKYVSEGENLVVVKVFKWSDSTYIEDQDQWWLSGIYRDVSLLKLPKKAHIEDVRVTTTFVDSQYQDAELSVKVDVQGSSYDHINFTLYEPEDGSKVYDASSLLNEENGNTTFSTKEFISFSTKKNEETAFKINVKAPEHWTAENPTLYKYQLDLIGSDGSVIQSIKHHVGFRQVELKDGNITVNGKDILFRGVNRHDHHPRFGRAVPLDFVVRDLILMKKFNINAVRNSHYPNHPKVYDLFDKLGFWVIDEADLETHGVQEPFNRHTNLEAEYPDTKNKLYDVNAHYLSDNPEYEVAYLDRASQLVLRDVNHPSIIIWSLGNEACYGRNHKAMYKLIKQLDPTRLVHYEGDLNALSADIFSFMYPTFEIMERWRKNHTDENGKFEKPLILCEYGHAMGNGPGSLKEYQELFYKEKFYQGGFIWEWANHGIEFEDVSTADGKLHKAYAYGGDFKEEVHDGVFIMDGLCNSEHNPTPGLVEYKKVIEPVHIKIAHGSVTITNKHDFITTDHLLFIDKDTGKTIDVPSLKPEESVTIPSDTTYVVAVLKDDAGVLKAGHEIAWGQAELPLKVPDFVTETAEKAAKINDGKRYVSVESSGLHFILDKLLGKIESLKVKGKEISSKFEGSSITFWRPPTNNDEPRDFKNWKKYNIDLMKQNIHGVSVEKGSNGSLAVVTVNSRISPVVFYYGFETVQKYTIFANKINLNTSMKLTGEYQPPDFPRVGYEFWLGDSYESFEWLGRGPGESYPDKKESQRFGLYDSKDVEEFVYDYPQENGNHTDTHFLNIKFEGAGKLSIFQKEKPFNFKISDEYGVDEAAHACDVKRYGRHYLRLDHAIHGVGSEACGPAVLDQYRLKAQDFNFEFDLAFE
Experimental: Similar to the method applied in β-Glc assay, the hydrolysis of o-nitrophenyl-β-O-D-galactopyranoside (β-ONPG) was continuously measured in 96-well microplate. Wells were filled in triplicate with β-Gal (Kluyveromyces lactis) in 50 mM buffer phosphate, pH 7 (7.20 μU mL^−1 final concentration in well) and 10 μL of test compound in dimethylsulfoxide (DMSO) solution (100 μM or 500 μM end concentration in well). The final volume in well was 270 μL. The enzymatic reaction was initiated by addition of β-ONPG (3.23 mM end concentration in well). The plate was shaken for 2 s and the increase in absorbance at 405 nm was monitored at 37 °C for 10 min. For IC50 determination, eighteen serial dilutions of the compounds were prepared in DMSO, following equally spaced points in neperian logarithm scale, starting at 94.50 mM and finishing at 1.44 μM. IC50 was calculated using Prism V5.01 (GraphPad Software Inc., La Jolla, CA, USA) requesting the software a non-linear regression curve fit for a log[Inhibitor] vs. normalized answer model with variable slope.

β-galactosidase (β-Gal) [8] = target: T1, β-galactosidase (β-Gal); parameters: method as in earlier work; settings: ref 1 (Kato et al., J. Med. Chem., 2005, 48, 2036-2044); read-out: IC50 (β-Gal), reference inhibitor; cited from earlier work
[9] = binds the active site of β-Glc from almonds, read-out: Ki (β-Glc from almonds)

OC[C@H]1NC[C@H](O)[C@@H](O)[C@@H]1O [1-DNJ, 1-deoxynojirimycin, reference compound]
IC50 (β-Glc (from almonds) [1]): 65.2 ± 1.04 µM
IC50 (β-Glc (from almonds) [2]; read-out: IC50 (β-Glc inhibition), reported value for reference inhibitor): 81 µM
Ki (β-Glc [3]; measured in similar conditions, read-out: Ki (β-Glc), reference compound): 47 µM

O=S(=O)(NCCc1c[nH]cn1)c1ccccc1 [I-a, N ^α-benzenesulfonyl histamine]
IC50 (β-Glc (from almonds) [1]): 197 µM

Cc1ccc(S(=O)(=O)NCCc2c[nH]cn2)cc1 [I-b, N ^α-p-toluenesulfonyl histamine]
IC50 (β-Glc (from almonds) [1]): 250 ± 1.03 µM

O=S(=O)(NCCc1c[nH]cn1)c1ccc(F)cc1 [I-c, N ^α-4-fluorobenzenesulfonyl histamine]
IC50 (β-Glc (from almonds) [1]): 65.1 ± 1.04 µM
% inhibition of β-Glc at 65 μM (β-Glc (from almonds) [1]; tested at 65 μM): 49.94%
Enzyme activity recovery (jump dilution) (β-Glc [4]; incubated at 10-fold IC50, 30 min, diluted 100-fold): 91%
Enzyme–inhibitor interaction (reversibility) (β-Glc [4]; jump dilution): reversible
Type of inhibition (Lineweaver–Burk plot) (β-Glc [5]; different concentrations of p-NPG and inhibitor): competitive
Ki (β-Glc [5]; kinetic assays, p-NPG substrate): 8.11 µM
inhibition at 3 µM (xanthine oxidase (XO)): 1.31%
Inhibition of AChE [6]: no inhibition
Inhibition of β-Gal (β-galactosidase (β-Gal) [7]): no inhibition

O=S(=O)(NCCc1c[nH]cn1)c1ccc(C(F)(F)F)cc1 [I-d, N ^α-4-(trifluoromethyl)benzenesulfonyl histamine]
IC50 (β-Glc (from almonds) [1]): 79.5 ± 1.05 µM

Cc1ccc(F)c(S(=O)(=O)NCCc2c[nH]cn2)c1 [I-e, N ^α-2-fluor-5-methylbenzenesulfonyl histamine]
% of inhibition of β-Glc at 40 μM (β-Glc (from almonds) [1]; fixed compound concentration 40 μM): ≤ 25%
IC50 (β-Glc (from almonds) [1]): 421.6 ± 0.94 µM

O=S(=O)(NCCc1c[nH]cn1)c1ccc(F)cc1Cl [I-f, N ^α-2-Chloro-4-fluorobenzenesulfonyl histamine]
IC50 (β-Glc (from almonds) [1]): 244.2 ± 1.09 µM

O=S(=O)(NCCc1c[nH]cn1)c1cc(F)c(F)c(F)c1 [I-g, N ^α-3,4,5-trifluorobenzenesulfonyl histamine]
IC50 (β-Glc (from almonds) [1]): 71.4 ± 1.02 µM

O=S(=O)(NCCc1c[nH]cn1)c1ccc(F)cc1C(F)(F)F [I-h, N ^α-2-(trifluoromethyl)-4-fluorobenzenesulfonyl histamine]
IC50 (β-Glc (from almonds) [1]): 72.7 ± 1.05 µM

O=S(=O)(NCCc1c[nH]cn1)c1c(F)c(F)c(F)c(F)c1F [I-i, N ^α-pentafluorobenzenesulfonyl histamine]
IC50 (β-Glc (from almonds) [1]): 102 ± 1.05 µM

COc1ccc(S(=O)(=O)NCCc2c[nH]cn2)cc1F [I-j, N ^α-3-fluoro-4-methoxybenzenesulfonyl histamine]
IC50 (β-Glc (from almonds) [1]): 95.5 ± 1.02 µM

O=S(=O)(NCCc1cn(S(=O)(=O)c2ccccc2)cn1)c1ccccc1 [II-a, N ^α,N^τ-di-benzenesulfonyl histamine]
IC50 (β-Glc (from almonds) [2]; read-out: IC50 (β-Glc inhibition), reported value): 250 µM

OC[C@H]1NC[C@H](O)[C@@H](O)[C@H]1O [galacto-DNJ]
IC50 (β-galactosidase (β-Gal) [8]): 90 µM

NCCc1c[nH]cn1 [histamine]
IC50 (β-Glc (from almonds) [1]): > 1000 µM
Ki (β-Glc [3]; [9]): 2100 µM

c1c[nH]cn1 [imidazole]
Ki (β-Glc [3]; [9]): 530 µM

From paper PMC9088825, “N ^α-arylsulfonyl histamines as selective β-glucosidase inhibitors” (RSC Advances, 2018)
